Experimental data as given in article PMC11944037, “Investigating the Mechanism of Action of Ipomoea pes-caprae in the Treatment of Rheumatoid Arthritis Based on Serum Metabolomics and Network Pharmacology” (Marine Drugs, 2025).
Where two headings read alike, the source gives them in different places.

How the values were obtained:
[1] = Identification and relative content of absorbed components of IPE in plasma (UPLC-MS); format: in vivo, SD rats; details: oral IPE 13.5 g/kg, peak area normalization
Source text: A total of 83 male SD rats, SPF grade, six weeks old, body mass (200 ± 10 g), were purchased from Hunan SJA Laboratory Animal Co., Ltd. (Haodan Science and Technology Park, No.99 Changchong Road, Longping High-tech Park, Furong District, Changsha City, China), Animal License No. SCXK (Hunan) 2019-0004. The animal experiments were approved by the Animal Ethics Committee of Guangxi University of Chinese Medicine (Approval No. DW20220220-117). After one week of adaptive feeding, the animals were randomly divided into eight groups of 10 animals according to weight stratification: normal control group (Con), natural bovine type II collagen model group (CII), wind-dampness cold bi-syndrome model group (WCM), wind-dampness heat bi-syndrome model group (WHM), wind-dampness cold bi-syndrome + Ipomoea pes-caprae group (WCM + IPE), wind-dampness heat bi-syndrome + Ipomoea pes-caprae group (WHM + IPE), wind-dampness cold bi-syndrome + Duhuo group (WCM + DH) (Duhuo formula granules), and wind-dampness heat bi-syndrome + Fangji group (WHM + FJ) (Fangji formula granules). Another three rats were randomly selected as the normal administration group (Con + IPE), and the absorbed components in plasma were studied in vivo. The oral dose of IPE was 13.5 g/kg, and the dosing volume was 20 mL/kg. The oral doses of Duhuo formula granules and Fangji formula granules were 9.0 g/kg, with a dosing volume of 20 mL/kg for each. The blank control group and each model group were administered an equal volume of distilled water by oral gavage. The administration was performed once daily for 28 consecutive days.
Rats were fasted for 12 h before administration but not deprived of water, then weighed and administered. A total of 0.2 mL of blood was collected from the orbit at 5 min, 30 min, 45 min, 1 h, 2 h, 4 h, 6 h, 8 h, and 12 h after the end of gavage administration and placed in a centrifuge tube with a preservative anticoagulant (1.5% EDTA aqueous solution, 1.5 mL). The samples were centrifuged at 4 °C for 10 min at 4000 rpm to separate the plasma. The supernatant was transferred to a new centrifuge tube and stored in a refrigerator at −80 °C for the detection of absorbed components in plasma and pharmacokinetics. In addition, after the end of the entire experimental cycle, blood was taken from the abdominal aorta of the rat. The blood samples were kept at room temperature for 2 h, then centrifuged at 4 °C at 3000 rpm for 10 min, and the upper serum was aspirated. The samples were stored at −80 °C in a low-temperature refrigerator for TNF-α, IL-6 detection, and metabolomics detection.
Ultra-high liquid chromatograph (model: ExionLC AC, manufacturer: SCIEX Corporation, USA) and QTOF mass spectrometer (model: X500R, manufacturer: SCIEX Corporation, USA), Waters ACQUITY UPLC HSS T3 C18 column (1.8 μm, 2.1 × 100 mm) was used as the mobile phase for the separation of 0.1% formic acid aqueous solution (A)-acetonitrile (B) as a mobile phase, gradient elution (0~30 min, 5%~95% B); volume flow rate of 0.4 mL/min; injection volume: 3 μL, column temperature: 40 °C. Ion source: dual-spray TurboV, positive and negative ion scanning, TOF MS scanning range of m/z 100~1500, positive/negative ion source voltage of […], ion source temperature: 600 °C, GS1: 55 psi, GS2: 55 psi, air curtain gas pressure: 35 psi, parent ion collision energy: ±10 V, de-cluster voltage (DP): ±80 V, daughter ion collision energy (CE): ±35 V.
Expressed as mean ± standard deviation ( x¯ ± s) and processed by GraphPad Prism 8.4.3 statistical software, statistical comparisons were evaluated by one-way ANOVA, followed by the Student–Newman–Keuls post hoc test. The difference was statistically significant with p < 0.05 and p < 0.01. […]

[2] = test system: RA-FLS; parameters: method as in PMID 28463788; details: by blocking phosphorylation of IκB and IκB kinases; cited from earlier work
[3] = Pharmacokinetics of absorbed components of IPE in plasma; format: in vivo, SD rats; details: component of orally given IPE, n = 6; for MRT last: read-out: MRT0~t
Source text: (Haodan Science and Technology Park, No.99 Changchong Road, Longping High-tech Park, Furong District, Changsha City, China), Animal License No. SCXK (Hunan) 2019-0004. The animal experiments were approved by the Animal Ethics Committee of Guangxi University of Chinese Medicine (Approval No. DW20220220-117). After one week of adaptive feeding, the animals were randomly divided into eight groups of 10 animals according to weight stratification: normal control group (Con), natural bovine type II collagen model group (CII), wind-dampness cold bi-syndrome model group (WCM), wind-dampness heat bi-syndrome model group (WHM), wind-dampness cold bi-syndrome + Ipomoea […] group ([…]), wind-dampness heat bi-syndrome + Ipomoea […] group ([…]), wind-dampness cold bi-syndrome + Duhuo group (WCM + DH) (Duhuo formula granules), and wind-dampness heat bi-syndrome + Fangji group (WHM + FJ) (Fangji formula granules). […] The oral dose of IPE was 13.5 g/kg, and the dosing volume was 20 mL/kg. The oral doses of Duhuo formula granules and Fangji formula granules were 9.0 g/kg, with a dosing volume of 20 mL/kg for each. The blank control group and each model group were administered an equal volume of distilled water by oral gavage. […] The supernatant was transferred to a new centrifuge tube and stored in a refrigerator at -80 °C for the detection of absorbed components in plasma and pharmacokinetics. In addition, after the end of the entire experimental cycle, blood was taken from the abdominal aorta of the rat. The blood samples were kept at room temperature for 2 h, then centrifuged at 4 °C at 3000 rpm for 10 min, and the upper serum was aspirated. The samples were stored at -80 °C in a low-temperature refrigerator for TNF-α, IL-6 detection, and metabolomics detection. In order to further elaborate on the in vivo pharmacokinetic characteristics of IPE, this study selected caffeic acid, protocatechuic acid, and ferulic acid as the research objects to explore their in vivo absorption and metabolism characteristics. In addition, syringic acid was chosen as the internal standard. […] Use A as 0.1% acetic acid aqueous solution (A) acetonitrile (B) as the mobile phase, with gradient elution (0-6 min, 5-20% B; 6-10 min, 20-40% B), a volume flow of 0.4 mL/min, a column temperature of 40 °C, and an injection volume of 3 μL. Ion source: electrospray ion source (ESI), negative ion mode collection, simultaneous measurement by multiple reaction monitoring (MRM) mode.

[4] = test system: JAK/STAT pathway; details: modulating CRP, RF, TNF-α, TGF-β levels; cited from earlier work
[5] = test system: LTB4; parameters: method as in PMID 27826169; details: cited from earlier work
[6] = test system: NF-κB and Akt/mTOR signaling pathways; parameters: method as in PMID 32510258; details: cited from earlier work
[7] = test system: tyrosine kinases on fibroblast-like synoviocytes (FLS); details: cited from earlier work
[8] = male, SD, rat, plasma, po, 13.5 g/kg, Con + IPE group
[9] = male, SD, rat, plasma, po, 13.5 g/kg, Con + IPE group, read-out: Tmax
[10] = male, SD, rat, plasma, po, 13.5 g/kg, WCM + IPE group
[11] = male, SD, rat, plasma, po, 13.5 g/kg, WCM + IPE group, read-out: Tmax
[12] = male, SD, rat, plasma, po, 13.5 g/kg, WHM + IPE group
[13] = male, SD, rat, plasma, po, 13.5 g/kg, WHM + IPE group, read-out: Tmax

Row | SMILES | Relative Content of absorbed component in plasma ([1]; Con + IPE group (normal rats)) | Relative Content of absorbed component in plasma ([1]; WCM + IPE group) | Relative Content of absorbed component in plasma ([1]; WHM + IPE group) | AUC(0-t) [3, 8] | Cmax [3, 8] | half-life [3, 8] | MRT last [3, 8] | Tmax [3, 9] | AUC(0-t) [3, 10] | Cmax [3, 10] | half-life [3, 10] | MRT last [3, 10] | AUC(0-t) [3, 12] | Cmax [3, 12] | half-life [3, 12] | MRT last [3, 12] | Tmax [3, 13] | also measured
1 | O=C(O)c1ccc(O)cc1 [p-Hydroxybenzoic acid] | 38.2% | 29.65% | 34.04% | – | – | – | – | – | – | – | – | – | – | – | – | – | – | –
2 | O=Cc1ccc(O)c(O)c1 [Protocatechuic aldehyde] | – | 1.68% | – | – | – | – | – | – | – | – | – | – | – | – | – | – | – | –
3 | O=C(O)c1ccc(O)c(O)c1 [Protocatechuic acid] | 1.04% | 1.14% | 0.84% | 504 ± 177 ng·h/mL | 269 ± 90.2 ng/mL | 1.93 ± 1.01 h | 1.9 ± 0.42 h | 0.66 ± 0.25 h | 194 ± 100 ng·h/mL | 121 ± 77.4 ng/mL | 1.46 ± 0.32 h | 1.59 ± 0.38 h | 307 ± 98.3 ng·h/mL | 145 ± 53.2 ng/mL | 1.25 ± 0.36 h | 1.83 ± 0.24 h | 0.62 ± 0.14 h | Tmax [3, 11]: 0.41 ± 0.12 h; secretion of MMP-3, MMP-13, TNF-α, IL-1β, and IL-6 [6]: inhibits the secretion
4 | COc1cc2ccc(=O)oc2cc1O [Scopoletin] | 5.83% | 4.71% | 5.56% | – | – | – | – | – | – | – | – | – | – | – | – | – | – | NF-κB signaling in fibroblast-like synoviocytes [7]: block NF-κB signaling

The next lines start with results.

Row | Relative Content of absorbed component in plasma ([1]; Con + IPE group (normal rats)) | Relative Content of absorbed component in plasma ([1]; WCM + IPE group) | Relative Content of absorbed component in plasma ([1]; WHM + IPE group) | AUC(0-t) [3, 8] | Cmax [3, 8] | half-life [3, 8] | MRT last [3, 8] | Tmax [3, 9] | AUC(0-t) [3, 10] | Cmax [3, 10] | half-life [3, 10] | MRT last [3, 10] | AUC(0-t) [3, 12] | Cmax [3, 12] | half-life [3, 12] | MRT last [3, 12] | Tmax [3, 13] | SMILES | also measured
5 | 33.04% | 30.2% | 34.24% | 2080 ± 349 ng·h/mL | 703 ± 190 ng/mL | 4.51 ± 3.03 h | 4.18 ± 1.82 h | 0.85 ± 0.22 h | 1130 ± 163 ng·h/mL | 342 ± 123 ng/mL | 2.82 ± 1.07 h | 3.32 ± 0.35 h | 2300 ± 410 ng·h/mL | 709 ± 194 ng/mL | 3.82 ± 2.55 h | 4.53 ± 1.34 h | 0.93 ± 0.12 h | O=C(O)/C=C/c1ccc(O)c(O)c1 [Caffeic acid] | IL-6 and TNF-α, inflammatory response in RA-FLS [2]: inhibits IL-6 and TNF-α; Tmax [3, 11]: 0.62 ± 0.14 h
6 | 2.7% | 7.8% | 5% | – | – | – | – | – | – | – | – | – | – | – | – | – | – | COc1cc2oc(=O)ccc2cc1O [Isoscopoletin] | –
7 | 17.23% | 20.09% | 17.71% | 60.6 ± 27.3 ng·h/mL | 35.8 ± 10.9 ng/mL | 1.51 ± 0.51 h | 1.3 ± 0.28 h | 0.45 ± 0.1 h | 34.9 ± 22.6 ng·h/mL | 26.1 ± 11.6 ng/mL | 1.02 ± 0.46 h | 1.05 ± 0.35 h | 104 ± 41.2 ng·h/mL | 38.8 ± 16.2 ng/mL | 1.31 ± 0.32 h | 2.27 ± 0.42 h | 0.7 ± 0.27 h | COc1cc(/C=C/C(=O)O)ccc1O [Ferulic acid] | JAK/STAT pathway-mediated RA [4]: inhibits JAK/STAT pathway-mediated RA; Tmax ([3]; WCM + IPE group): 0.33 ± 0.12 h
8 | – | 1.77% | – | – | – | – | – | – | – | – | – | – | – | – | – | – | – | O=c1ccc2ccccc2o1 [Coumarin] | –
9 | 1.57% | 2.45% | 2.02% | – | – | – | – | – | – | – | – | – | – | – | – | – | – | COC(=O)/C=C/c1ccc(O)c(O)c1 [Methyl caffeate acid] | –
10 | 0.39% | 0.5% | 0.58% | – | – | – | – | – | – | – | – | – | – | – | – | – | – | O=c1ccc2cc(O)c(O)cc2o1 [Esculetine] | LTB4 levels [5]: decreasing LTB4 levels
